# Measurements taken from patent US7705016B2, “Regulation of food intake by modulation of long-chain fatty acyl-CoA levels in the hypothalamus” (Albert Einstein College of Medicine of Yeshiva University, priority 2003, dated 2010).
# What was measured:
# Glc-6-Pase mRNA = test: Hepatic Glc-6-Pase mRNA after ICV OA (northern blot); type: in vivo, rat
# Experimental: Northern Blot Analysis. Total RNA was isolated from hypothalami and liver with Trizol (Invitrogen Corp., California, USA). NPY, Glc-6-Pase or PEPCK expression was measured by northern blot analysis. Hypothalamic RNA was analyzed using probes for prepro-NPY and β-actin. To assess the effect of ICV OA on the expression of hepatic enzymes, total RNA was isolated from freeze-clamped liver tissues from rats subjected to insulin clamp studies. Glc-6-Pase and PEPCK cDNA were obtained as previously described (Combs et al., 2001; Massillon et al., 1996; 1998). Probes were labeled with [α-^32P] dCTP using a random primer kit (Stratagene). Quantification was performed by scanning densitometry, normalizing for β-actin signal and 18S ribosomal RNA to correct for loading variabilities. Effect of ICV OA on the hepatic expression of Glc-6-Pase and PEPCK. The potent effects of the central administration of OA on hepatic glucose fluxes prompted us to examine whether changes in the liver mRNA levels of key metabolic enzymes can partly account for these effects. Thus, we next measured the liver abundance of Glc-6-Pase and PEPCK mRNA as a function of 18S ribosomal RNA (FIG. 9d) or β-actin mRNA (not shown) in tissue samples obtained after ICV infusion of either OA or vehicle in caloric restricted and over-fed rats. […]
# CPT1M mRNA = CPT1M mRNA in hypothalamic nuclei micro punches by real-time PCR after ICV injection; type: in vivo, rat; settings: 3 days after ICV injection
# Experimental: Surgical implantation of ICV cannulae was performed on day 1 (˜3 weeks prior to the in vivo study). Full recovery of body weight and food intake was achieved by day 7. Rats randomized for ribozyme treatment received an ICV injection of CPT1L-Ribo, CPT inhibitors or controls on day 17. The experimental group treated with TDGA received ICV injection of the inhibitor on day 21, 6 hr prior to the harvesting of brains. Panels B. and C. show quantitation of CPT1L (B) and CPT1M (C) mRNA by real-time PCR. RNA was purified from individual hypothalamic nuclei (PVN, LHA, and arcuate), which were obtained by micro punch technique 3 days after ICV injection of pTarget control (▪; N=4) or CPT1LRibo (□; N=5). […] CPT1 activity was measured in the particulate fraction of protein extracts from animals treated with ICV control injections (▪; N=6, receiving aCSF+2% DMSO or Control Ribo), TDGA ( ?; N=6), or CPTL-Ribo (□; N=5). […] Levels of stearoyl-CoA (F) and oleyl-CoA (E) respectively were measured by HPLC in arcuate of rats injected ICV with control compound (▪; ST1340) or ST1326 (□).
# ICV catheters were implanted in male Sprague-Dawley rats by stereotaxic surgery (Obici et al., 2002a; Obici et al., 2001; Liu et al., 1998). […] Thus, we next measured CPT1 activity in ARC and in whole hypothalamus. […]
# Quantitation of CPT1 and neuropeptides mRNA by Northern and real-time PCR. […]
hepatic Glc-6-Pase mRNA expression (Glc-6-Pase mRNA; HF140 group),Compound,"suppression of hepatic Glc-6-Pase mRNA expression (Glc-6-Pase mRNA; HF55 group, ICV OA vs ICV vehicle) [%]",CPT1M mRNA expression in hypothalamic nuclei (CPT1M mRNA)
no changes detected,"CCCCCCCC/C=C\CCCCCCCC(=O)O [OA, oleic acid]",~73,–
–,"CPT1L-Ribo: plasmid (pTarget, CMV promoter) expressing a hammerhead ribozyme that specifically cleaves rat CPT1L mRNA, complexed to PEI for ICV injection (DNA CUGUACCAAAGAGCUGUAGAGUCCGUGAGGACGAAACGCCGCUCACAAUG)",–,not appreciably altered
